In PMC11788822, “Uncovering the potent antimicrobial activity of squaramide based anionophores – chloride transport and membrane disruption” (Chemical Science, 2025):
Where “and” joins values, the source holds several entries; their conditions need not be identical. Identical values can stand only once. Like-named read-outs stand apart in the source and are kept apart here. Marks after values point to notes of the source that are not given here.

What was measured:
[1] = system: panel of Gram-positive and -negative pathogens; experiment: Zone of inhibition assay; format: cell-based; settings: 5 μL of 1 mM stock on nutrient agar, 37 °C, 24 h; radius ≤ 2 mm deemed not active
Experimental: To do this, a zone of inhibition assay was used as a qualitative measure of activity. To do so, 5 μL of a 1 mM stock of the respective compound was pipetted atop nutrient agar which was previously spread with a panel of Gram-positive and -negative pathogens of interest. Following incubation at 37 °C for 24 h, zones of inhibition were measured and recorded for each compound. Zones with a radius ≤ 2 mm were deemed as not active, and thus eliminated from further study.

G. mellonella larvae = experiment: Galleria mellonella in vivo toxicity; settings: larvae dosed at 10× IC50, monitored over 72 h
Experimental: Next, to assess the medicinal validity of compounds 1, 2, and 4 we investigated the in vivo toxicity of these compounds using the Galleria mellonella model organism. This model has been introduced as an alternative model to study microbial infections as it can be easily and inexpensively obtained and doesn't require specialised lab equipment or impose significant ethical constraints. […] Thus, G. mellonella larvae were dosed with a concentration of each compound at 10× IC50 and monitored for signs of toxicity or death over a 72 hour window.
Bacterial cultures were brought to early stationary phase overnight, in nutrient broth (containing 25/50 µg/mL Ampicillin for MRSA/K. pneumoniae, respectively) at 37 °C. Cultures were diluted to an OD600 = 0.01. Aliquots of Culture (100 µl) were added to 100 µL serially diluted compound (200 – 0.78 µM) in nutrient broth in a 96-well plate (Sarstedt, Germany).
Plates were incubated at 37 °C for 24 h and growth was measured at 600 nm, where growth was measured and represented relative to control.
Galleria mellonella toxicity studies
To ascertain inherent compound toxicity, 10 healthy G. mellonella larvae were selected and weighed ensuring to keep larval weight approx. 0.25 g (+ 0.05 g). This constituted one sample set for experiments. […] Larvae were subsequently monitored for up to […], for signs of toxicity, melanisation and death. […]
From an overnight culture brought to stationary phase (OD600 = ~1.0) was taken samples, brought to an OD600 = 0.2, which were treated with N-Ethoxycarbonylmethyl-6-methoxyquinolium Bromide (MQAE) (10 mM) for 1 h at 37 0C. […] 2 mL of samples were taken & transferred to a fluorescence cuvette, whereupon fluorescence was read (λexc = 350 nm (slit width = 5 nm) λem = 460 nm (slit width = 5 nm)) using a Cary Eclipse Fluorescence Spectrophotometer (Agilent Technologies). Subsequently samples were treated with the Compound of interest for 5 mins whereafter fluorescence was measured as previous, with intensity plotted relative to control, […]

[2] = Lucigenin Cl−/NO3− exchange assay in LUVs; settings: Cl− transport, 0.4 mM POPC/cholesterol 7:3 LUVs, Hill fit at 270 s
Experimental: Given our objective was to use such transport behaviour as a method to disrupt anion homeostasis in bacteria, we also conducted anion transport assays in Large Unilamellar Liposomes (LUVs) using the well-established Lucigenin-based Cl^−/NO3^− exchange assay.[40] Briefly, LUVs containing the chloride sensitive dye lucigenin in a NaNO3 solution were prepared and a NaCl pulse was added to create a chloride concentration gradient. Upon addition of the putative transporter, the quenching of the fluorescence of lucigenin was monitored over time to assess Cl^− influx.
Lucigenin Cl-/NO3- anion exchange assay
LUV preparation and Lucigenin assays were carried out following procedures outlined by Valkenier and co-workers.8 Large unilamellar liposomes (LUVs) were synthesized using 1-palmitoyl-2-oleoyl-sn-glycero-3-phosphocholine (POPC)(11.2 µmol, soln. in CHCl3) and Cholesterol (4.8 µmol) mixed in a ratio of 7:3. This mixture was brought to dryness under gentle vacuum and subsequently, the mixture was rehydrated in an aqueous Lucigenin solution (1 mL, 0.8mM lucigenin in 225 mM NaNO3) and stirred for 1 h to obtain heterogeneous vesicles. After that, the vesicles underwent 9 freeze-thaw cycles and were extruded through a […] polycarbonate membrane 29 times to obtain monodisperse LUVs. A Sephadex G-100 size-exclusion column was employed to remove any unencapsulated lucigenin. The collected liposomes were diluted to 40 mL with 225 mM NaNO3 to obtain a homogeneous 0.4 mM liposome solution. Lucigenin fluorescence quenching was monitored in a time dependent manner using an Agilent Spectrofluorimeter to access Cl- influx (λ ex = 430 nm, λem = 505 nm).
Cl- transport behaviour was initiated at t=0 s by adding each compound as a solvate in DMSO followed by a 25 mM NaCl pulse (75µL, 1 M NaCl in […] NaNO3) to a 3 mL liposome solution. The data was collected for at least 600 s and then Triton X-100 (5% w/w in water) was added to lyse the liposomes, and normalize to 100% efflux. The recorded data was normalised and the fraction fluorescence intensity at 270 s of each tested concentration of transporters (mol%) was plotted against transporter concentration (mol%). The data obtained was fitted to the Hill equation to obtain the EC50 value at 270 s (the concentration to obtain the half maximum effect) by using Originlab 2024b or Graphpad Prism 10:
y = START + (END ‒ START) ∗ xn/(kn + xn)
Where n is the Hill coefficient, k presents the EC 50 value.

[3] = set-up: method as in PMID 34709282; settings: Cl− transport; Reported by Gale and co-workers; cited from earlier work

Structure (SMILES)	zone of inhibition, qualitative measure of activity [1]	signs of toxicity or death (G. mellonella larvae)	EC50 (mol%) [2]	EC50 (mol%) [3]
O=c1c(Nc2cc(C(F)(F)F)cc(C(F)(F)F)c2)c(NC23CC4CC(CC(C4)C2)C3)c1=O [Compound 1]	promising bioactivity	no appreciable signs of acute/chronic toxicity	0.0836 mol% and 0.084 mol%	–
O=c1c(Nc2ccc(Cl)c(Cl)c2)c(NC23CC4CC(CC(C4)C2)C3)c1=O [Compound 2]	promising bioactivity	no appreciable signs of acute/chronic toxicity	0.0993 mol%	–
O=c1c(Nc2ccc([N+](=O)[O-])cc2)c(NC23CC4CC(CC(C4)C2)C3)c1=O [Compound 4]	promising bioactivity	no appreciable signs of acute/chronic toxicity	–	0.031 ^a mol%
